The subject of test [1] is HCT-116. In words: Cytotoxicity against human HCT116 cells. The test is classed as functional, cell-based.
Test [2] is described as follows: Cytotoxicity against human NCI60 cells. The test is classed as functional.

Structures are written as SMILES. Where only a bound is given, the exact number is not on record here.

A word on the IC50: it is the midpoint of a concentration-inhibition curve. A lower IC50 goes with inhibition by little substance. Broadly, the GI50 is the concentration at which growth is held to half of that of the control. A lower GI50 goes with greater sensitivity of the cells. In test [1], `C[C@@]12OC(=O)[C@]1([C@@H](O)[C@@H]1C=CCCC1)NC(=O)[C@@H]2CCCl` [MARIZOMIB] gave an IC50 of at most 2 ng/mL. For the same compound, the GI50 in test [2] is under 10 nM.
